Measurements published in patent US20240158348A1, “HERBICIDAL CYCLIC AMIDES N-SUBSTITUTED WITH A HALOALKYLSULFONYLANILIDE GROUP” (FMC Corporation, priority 2021, published 2024).

How the values were obtained:
Format in all cases: in vivo
[1] = system: ryegrass, Italian (Italian ryegrass, Lolium multiflorum); assay: Test C postemergence, Italian ryegrass; settings: visual injury, 0 to 100 scale (0 no effect, 100 complete control)
Source text: (§1) Seeds of plant species selected from blackgrass (Alopecurus myosuroides), corn (Zea mays), foxtail, giant (giant foxtail, Setaria faberi), goosegrass (Eleusine indica), kochia (Bassia scoparia), oat, wild (wild oat, Avena fatua), pigweed, palmer (palmer amaranth, Amaranthus palmeri), ragweed (common ragweed, Ambrosia artemisiifolia), ryegrass, Italian (Italian ryegrass, Lolium multiflorum), soybean (Glycine max) and wheat (Triticum aestivum) were planted into a blend of loam soil and sand and treated preemergence with a directed soil spray using test chemicals formulated in a non-phytotoxic solvent mixture which included a surfactant.
(§2) At the same time, plants selected from these crop and weed species and also galium (catchweed bedstraw, Galium aparine) and horseweed (Erigeron canadensis) were planted in pots containing the same blend of loam soil and sand and treated with postemergence applications of test chemicals formulated in the same manner. Plants ranged in height from 2 to 10 cm and were in the one- to two-leaf stage for the postemergence treatment. Treated plants and untreated controls were maintained in a greenhouse for 10 or 12 days, after which time all treated plants were compared to untreated controls and visually evaluated for injury. Plant response ratings, summarized in Table A, are based on a 0 to 100 scale where 0 is no effect and 100 is complete control. A dash (-) response means no test result.

[2] = system: blackgrass (Alopecurus myosuroides); assay: Test C postemergence, blackgrass; settings: 31 g ai/ha Postemergence; visual injury, 0 to 100 scale (0 no effect, 100 complete control)
Source text: as §1, §2

kochia (Bassia scoparia) [3] = assay: Test C postemergence, kochia
Source text: as §1, §2

kochia (Bassia scoparia) [4] = assay: Test C preemergence, kochia; settings: 0 is no effect, 100 is complete control
Source text: as §1, §2

soybean (Glycine max) [5] = assay: Test C preemergence, soybean; settings: 0 is no effect, 100 is complete control
Source text: as §1, §2

[6] = system: galium (catchweed bedstraw, Galium aparine); assay: Test C postemergence, galium
Source text: as §1, §2

[7] = system: wheat (Triticum aestivum); assay: Test C postemergence, wheat; settings: visual injury, 0 to 100 scale (0 no effect, 100 complete control)
Source text: as §1, §2

[8] = system: ducksalad (Heteranthera limosa); assay: Test D flooded paddy test, ducksalad; set-up: key: 0 = no effect, 100 = complete control; settings: 250 g ai/ha, Flood; applied to paddy water at 2-leaf stage; visual rating after 13 days; scale 0 (no effect) to 100 (complete control)
Method: (§3) Plant species in the flooded paddy test selected from barnyardgrass (Echinochloa crusgalli), ducksalad (Heteranthera limosa), rice (Oryza sativa), and sedge, umbrella (small-flower umbrella sedge, Cyperus difformis) were grown to the 2-leaf stage for testing. At time of treatment, test pots were flooded to 3 cm above the soil surface, treated by application of test compounds directly to the paddy water, and then maintained at that water depth for the duration of the test. Treated plants and controls were maintained in a greenhouse for 13 days, after which time all species were compared to controls and visually evaluated. Plant response ratings, summarized in Table B, are based on a scale of 0 to 100 where 0 is no effect and 100 is complete control. A dash (-) response means no test result.

[9] = system: sedge, umbrella (small-flower umbrella sedge, Cyperus difformis); assay: Test D flooded paddy test, umbrella sedge; set-up: key: 0 = no effect, 100 = complete control; settings: 250 g ai/ha, Flood; applied to paddy water at 2-leaf stage; visual rating after 13 days; scale 0 (no effect) to 100 (complete control)
Method: as §3

corn (Zea mays) [10] = assay: Test C preemergence, corn; settings: 0 is no effect, 100 is complete control
Source text: as §1, §2

[11] = system: goosegrass (Eleusine indica); assay: Test C postemergence, goosegrass
Source text: as §1, §2

[12] = system: ragweed (common ragweed, Ambrosia artemisiifolia); assay: Test C preemergence, ragweed; settings: 0 is no effect, 100 is complete control
Source text: as §1, §2

[13] = system: blackgrass (Alopecurus myosuroides); assay: Test C preemergence, blackgrass; settings: 0 is no effect, 100 is complete control
Source text: as §1, §2

soybean (Glycine max) [14] = assay: Test C postemergence, soybean; settings: visual injury, 0 to 100 scale (0 no effect, 100 complete control)
Source text: as §1, §2

[15] = system: barnyardgrass (Echinochloa crusgalli); assay: Test D flooded paddy test, barnyardgrass; set-up: key: 0 = no effect, 100 = complete control; settings: 250 g ai/ha, Flood; applied to paddy water at 2-leaf stage; visual rating after 13 days; scale 0 (no effect) to 100 (complete control)
Method: as §3

[16] = system: ryegrass, Italian (Italian ryegrass, Lolium multiflorum); assay: Test C preemergence, Italian ryegrass; settings: 0 is no effect, 100 is complete control
Source text: as §1, §2

[17] = system: pigweed, palmer (palmer amaranth, Amaranthus palmeri); assay: Test C preemergence, palmer amaranth; settings: 0 is no effect, 100 is complete control
Source text: as §1, §2

[18] = system: oat, wild (wild oat, Avena fatua); assay: Test C preemergence, wild oat; settings: 0 is no effect, 100 is complete control
Source text: as §1, §2

[19] = system: goosegrass (Eleusine indica); assay: Test C preemergence, goosegrass; settings: 0 is no effect, 100 is complete control
Source text: as §1, §2

[20] = system: ragweed (common ragweed, Ambrosia artemisiifolia); assay: Test C postemergence, ragweed; settings: visual injury, 0 to 100 scale (0 no effect, 100 complete control)
Source text: as §1, §2

[21] = system: pigweed, palmer (palmer amaranth, Amaranthus palmeri); assay: Test C postemergence, palmer amaranth; settings: visual injury, 0 to 100 scale (0 no effect, 100 complete control)
Source text: as §1, §2

[22] = system: blackgrass (Alopecurus myosuroides); assay: Test C postemergence, blackgrass; settings: 125 g ai/ha Postemergence; 0 is no effect, 100 is complete control
[23] = system: foxtail, giant (giant foxtail, Setaria faberi); assay: Test C preemergence, giant foxtail; settings: 0 is no effect, 100 is complete control
Source text: as §1, §2

[24] = system: foxtail, giant (giant foxtail, Setaria faberi); assay: Test C postemergence, giant foxtail
Source text: as §1, §2

[25] = system: oat, wild (wild oat, Avena fatua); assay: Test C postemergence, wild oat
Source text: as §1, §2

[26] = system: wheat (Triticum aestivum); assay: Test C preemergence, wheat; settings: 0 is no effect, 100 is complete control
Source text: as §1, §2

rice (Oryza sativa) = assay: Test D flooded paddy test, rice; set-up: key: 0 = no effect, 100 = complete control; settings: 250 g ai/ha, Flood; applied to paddy water at 2-leaf stage; visual rating after 13 days; scale 0 (no effect) to 100 (complete control)
Method: as §3

corn (Zea mays) [27] = assay: Test C postemergence, corn
Source text: as §1, §2

[28] = 31 g ai/ha Postemergence, visual injury, 0 to 100 scale (0 no effect, 100 complete control)
[29] = 125 g ai/ha Postemergence, 0 is no effect, 100 is complete control

## Cc1c(NS(=O)(=O)C(F)(F)F)cc(N2CCC(OC3CC3)C2=O)c(C)c1F (centres unmarked) [Compound 26]
[1]; 31 g ai/ha Postemergence
  Ryegrass, Italian plant response rating: 60
[1]; 125 g ai/ha Postemergence
  Ryegrass, Italian plant response rating: 100
[2]
  Blackgrass plant response rating: 40
Kochia (Bassia scoparia) [3]; [28]
  Kochia plant response rating: 70
Kochia (Bassia scoparia) [3]; [29]
  Plant response rating (0 to 100 scale), Kochia: 90
Kochia (Bassia scoparia) [4]; 31 g ai/ha Preemergence
  Plant response rating (0 to 100 scale), Kochia: 100
Kochia (Bassia scoparia) [4]; 125 g ai/ha Preemergence
  Plant response rating (0 to 100 scale), Kochia: 100
Soybean (Glycine max) [5]; 31 g ai/ha Preemergence
  Plant response rating (0 to 100 scale), Soybean: 70
Soybean (Glycine max) [5]; 125 g ai/ha Preemergence
  Plant response rating (0 to 100 scale), Soybean: 90
[6]; [28]
  Galium plant response rating: 100
[6]; [29]
  Plant response rating (0 to 100 scale), Galium: 100
[7]; 31 g ai/ha Postemergence
  Wheat plant response rating: 60
[7]; 125 g ai/ha Postemergence
  Wheat plant response rating: 70
[8]
  Plant response rating, Ducksalad: 75
[9]
  Plant response rating, Sedge, Umbrella: 95
Corn (Zea mays) [10]; 31 g ai/ha Preemergence
  Plant response rating (0 to 100 scale), Corn: 60
Corn (Zea mays) [10]; 125 g ai/ha Preemergence
  Plant response rating (0 to 100 scale), Corn: 90
[11]; [28]
  Goosegrass plant response rating: 80
[11]; [29]
  Plant response rating (0 to 100 scale), Goosegrass: 100
[12]; 31 g ai/ha Preemergence
  Plant response rating (0 to 100 scale), Ragweed: 90
[12]; 125 g ai/ha Preemergence
  Plant response rating (0 to 100 scale), Ragweed: 100
[13]; 31 g ai/ha Preemergence
  Plant response rating (0 to 100 scale), Blackgrass: 70
[13]; 125 g ai/ha Preemergence
  Plant response rating (0 to 100 scale), Blackgrass: 90
Soybean (Glycine max) [14]; 31 g ai/ha Postemergence
  Soybean plant response rating: 70
Soybean (Glycine max) [14]; 125 g ai/ha Postemergence
  Soybean plant response rating: 100
[15]
  Plant response rating, Barnyardgrass: 30
[16]; 31 g ai/ha Preemergence
  Plant response rating (0 to 100 scale), Ryegrass, Italian: 90
[16]; 125 g ai/ha Preemergence
  Plant response rating (0 to 100 scale), Ryegrass, Italian: 100
[17]; 31 g ai/ha Preemergence
  Plant response rating (0 to 100 scale), Pigweed, Palmer: 100
[17]; 125 g ai/ha Preemergence
  Plant response rating (0 to 100 scale), Pigweed, Palmer: 100
[18]; 31 g ai/ha Preemergence
  Plant response rating (0 to 100 scale), Oat, Wild: 60
[18]; 125 g ai/ha Preemergence
  Plant response rating (0 to 100 scale), Oat, Wild: 100
[19]; 31 g ai/ha Preemergence
  Plant response rating (0 to 100 scale), Goosegrass: 90
[19]; 125 g ai/ha Preemergence
  Plant response rating (0 to 100 scale), Goosegrass: 100
[20]; 31 g ai/ha Postemergence
  Ragweed plant response rating: 60
[20]; 125 g ai/ha Postemergence
  Ragweed plant response rating: 80
[21]; 31 g ai/ha Postemergence
  Pigweed, Palmer plant response rating: 70
[21]; 125 g ai/ha Postemergence
  Pigweed, Palmer plant response rating: 90
[22]
  Plant response rating (0 to 100 scale), Blackgrass: 90
[23]; 31 g ai/ha Preemergence
  Plant response rating (0 to 100 scale), Foxtail, Giant: 90
[23]; 125 g ai/ha Preemergence
  Plant response rating (0 to 100 scale), Foxtail, Giant: 100
[24]; [28]
  Foxtail, Giant plant response rating: 40
[24]; [29]
  Plant response rating (0 to 100 scale), Foxtail, Giant: 90
[25]; [28]
  Oat, Wild plant response rating: 20
[25]; [29]
  Plant response rating (0 to 100 scale), Oat, Wild: 50
[26]; 31 g ai/ha Preemergence
  Plant response rating (0 to 100 scale), Wheat: 60
[26]; 125 g ai/ha Preemergence
  Plant response rating (0 to 100 scale), Wheat: 100
Rice (Oryza sativa)
  Plant response rating, Rice: 65
Corn (Zea mays) [27]; [28]
  Corn plant response rating: 50
Corn (Zea mays) [27]; [29]
  Plant response rating (0 to 100 scale), Corn: 90
